Tests used:
[1] = biological target: T1, ERRα ligand binding domain (ERRα-LBD) (Homo sapiens, UniProt P11474); assay: ERRα AlphaScreen Assay; type: biochemical; conditions: disruption of binding of ERRα-LBD protein to biotin-PGC1α-3 co-activator peptide; read-out: mean pIC50 (converted)
T1 construct: made in house; host or cells: E. coli
T1 sequence (P11474 193-421 limits assumed): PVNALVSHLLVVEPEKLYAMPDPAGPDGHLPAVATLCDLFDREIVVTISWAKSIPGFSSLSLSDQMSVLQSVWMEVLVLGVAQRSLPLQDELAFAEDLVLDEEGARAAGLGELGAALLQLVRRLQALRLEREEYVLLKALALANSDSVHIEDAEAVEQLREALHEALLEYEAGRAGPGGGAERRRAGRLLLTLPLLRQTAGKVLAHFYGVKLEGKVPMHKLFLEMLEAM
Excerpt: This assay was based on the knowledge that nuclear receptors interact with cofactors in a ligand dependent matter. The sites of interaction have been mapped to LXXLL motifs that are present in the co-activator sequences. Short peptide sequences that contain the LXXLL motif mimic the behavior of full length co-activators.
The ERRα AlphaScreen Assay described here relies on the interaction of the co-activator peptide with purified bacterial- expressed ERRα ligand binding domain (ERRα-LBD); upon ligand binding, the ERRα protein can undergo a conformational change resulting in a loss of co-activator binding.
Compounds of the present invention were tested for their ability to disrupt binding of ERRα-LBD protein to co-activator peptide using AlphaScreen® Technology (Perkin Elmer). ERRα-LBD protein was expressed in E. coli as a 6×His Small Ubiquitin-like Modifier (SUMO) fusion. Bacterial expressed 6His-SUMO-ERRα-LBD protein was purified using affinity chromatography. All experiments were performed at room temperature in 384-well white non-binding plates (Greiner) using 50 mM Tris-HCl pH 7.5, 100 mM NaCl, 0.1% Pluronic F-127, 0.05% BSA and 5 mM TCEP as the buffer. Final DMSO concentration was 1% in the assay. Compounds were assayed in triplicate and: incubated with 0.81 nM ERRα-LBD protein and 10 μg/mL streptavidin donor beads and 10 μg/mL Ni-chelate acceptor beads for 1 hour at room temperature; followed by a 2-hour incubation with 15 nM biotin-PGC1α-3 peptide (QRRPCSELLKYLTTNDDPP) corresponding to amino acids 202 to 220.
The AlphaScreen signal was measured using an Envision Xcite plate reader (Perkin Elmer). Data was normalized, and curve fitting analysis was performed in GraphPad Prism 7 using a four-parameter dose-response fit.

full length ERRα = biological target: T2, full length ERRα (Homo sapiens, UniProt P11474); assay: Full Length ERRα Reporter Gene Assay; type: cell-based; conditions: SK-BR-3 cells, ERRα-RE luciferase reporter, overnight incubation; read-out: mean pIC50 (converted)
T2 construct: an over-expression construct coding full length ERRα; expressed in transfected cells; host or cells: SK-BR-3 cells, transient co-transfection of pLP2124 (pcDNA3.1/Hygro(+) background) and reporter pLP2175
T2 sequence (P11474 1-423): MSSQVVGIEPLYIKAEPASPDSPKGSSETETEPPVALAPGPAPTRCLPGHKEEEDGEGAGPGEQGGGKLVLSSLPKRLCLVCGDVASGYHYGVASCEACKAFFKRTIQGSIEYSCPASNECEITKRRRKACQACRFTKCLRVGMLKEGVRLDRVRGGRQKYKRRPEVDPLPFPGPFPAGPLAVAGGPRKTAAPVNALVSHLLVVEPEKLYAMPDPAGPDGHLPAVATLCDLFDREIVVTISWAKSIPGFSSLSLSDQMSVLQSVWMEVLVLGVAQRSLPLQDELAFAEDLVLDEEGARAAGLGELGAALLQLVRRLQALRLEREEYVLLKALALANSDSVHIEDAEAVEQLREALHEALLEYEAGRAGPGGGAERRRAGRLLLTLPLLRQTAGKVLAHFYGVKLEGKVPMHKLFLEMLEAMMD
Excerpt: A method was established to quantitatively screen the potency of compounds with inverse agonistic activity on the nuclear receptor ERRα of the human species. The assay allows intra-cellular screening of ERRα inverse agonists in SK-BR-3 cells using an over-expression construct coding full length ERRα and a reporter construct containing an ERRα Response Element (RE) and a luciferase gene for read out. The activity is expressed in logIC50 values and can be used to determine SAR of compound families or to de-select compounds.
In this assay, reporter cells are obtained by transient co-transfection of two constructs in SK-BR-3 cells using standard transfection techniques. The first construct contains a response element of the nuclear receptor ERRα (Plasmid pLP2175, Reporter construct ERRα-RE/luc2P, cloned variant of ERRα_v2_synthRE, Switchgear Genomics, Catalog Number S900089). This sequence drives the transcription of the luciferase reporter gene in response to binding of an ERRα protein encoded by the second construct (Plasmid pLP2124: full length ERRα expression construct using pcDNA3.1/Hygro(+) as background, Invitrogen Catalog Number V87020).
The day after transfection, cells were plated into 96 well plates, the test compound was added and the plates were incubated overnight. Subsequently, the firefly luciferase activity was quantified using luciferase detection reagent and luminescence readout.
Transfection is performed on pre-seeded SK-BR-3 cells in a T175 flask. One transfected T175 flask is sufficient for seeding 3 to 4 MW96 plates the next day, depending on the confluency of the transfected cells.
Two different media are used in this protocol for cell treatment: 1) Culture medium, i.e. McCoy's 5a with phenol red (BioWhittaker Supplier Number 12-688F), 10% FBS and 1× Penstrep.; and, 2) Assay medium, i.e. McCoy's 5a Medium phenol red free (HyClone Product Code SH30270.01) with 2% Charcoal Stripped FBS and 1× Penstrep. Compound dilutions are prepared in assay medium.
Cells are seeded at least 2 days in advance to allow the cells to adhere well to flask before transfection. Cells should be 50-80% confluent at the day of transfection.
SKBR3 cells were transfected with the transcriptional reporter construct pLP2175 and the ERRα expression construct pLP2124 (as described above).
68 μL of Lipofectamine LTX transfection reagent (Invitrogen Catalog Number 15338-100) was added dropwise to 8.9 ml Opti-MEM I Reduced Serum Medium (Gibco Catalog Number 51985-026) and incubated at room temperature for 5 to 20 minutes. 8.9 ml of this reagent mixture was added to 22 μg pLP2175+22 μg pLP2124 (ratio 1:1 and total volume 10 ml), and incubated at room temperature for 25 minutes.
10 minutes before adding the transfection mix to SKBR3 cells in a T175 flask, the culture medium was refreshed with 20 mL culture medium. Subsequently, the 10 mL DNA-Opti-MEM-Lipofectamine mixture was gently added to the cells, followed by overnight (16-24 hours) incubation at 37° C. and 5% CO2.
To harvest SKBR3 cells from a T175 flask, first the medium was removed. Subsequently, cells were washed with Phosphate Buffered Saline (PBS) (Lonza), after which the PBS was removed. To dissociate the cells, 2 ml of TrypLE Express (I nvitrogen) was added to the flask, followed by incubation at 37° C. for 5 minutes. The flask was tapped until cells were detached from the bottom. Cells were collected in 8 mL of culture medium (McCoy's 5a, 10% FBS, penstrep), to achieve a single cell suspension. After cell count, cells were spun down for 5 minutes at 300 g. Next cell pellets were re-suspended to 25000 cells/80 μl assay medium (McCoy's 5a phenol red free, 2% charcoal stripped FBS, penstrep).
For compound screening, the cells were harvested (as described above). 80 μL of cell suspension (25,000 cells) was plated per well into a white, flat bottom, tissue culture treated, 96 well screening plates (Greiner). […]

Row | IC50 [1] | IC50 (full length ERRα) | SMILES
1 | 10 to 100 nM | ≤ 316 nM | COc1cc(C2CC(=O)Nc3n[nH]cc32)ccc1Oc1cc(C(F)(F)F)cc(C(F)(F)F)c1 (racemic) [Example 43, 4-{4-[3,5-bis(trifluoromethyl)phenoxy]-3-methoxyphenyl}-2H,4H,5H,6H,7H-pyrazolo[3,4-b]pyridin-6-one]
2 | ≤ 10 nM | ≤ 316 nM | COc1cc(C2CC(=O)Nc3n[nH]cc32)ccc1Oc1cc(C)cc(C(F)(F)F)c1 (single isomer, unassigned; (-)) [Example 84, (−)-4-{3-methoxy-4-[3-methyl-5-(trifluoromethyl)phenoxy]phenyl}-2H,4H,5H,6H,7H-pyrazolo[3,4-b]pyridin-6-one]
3 | ≤ 10 nM | ≤ 316 nM | COc1cc(C2CC(=O)Nc3n[nH]cc32)ccc1Oc1cc(C(F)F)cc(C(F)(F)F)c1 (single isomer, unassigned; (-)) [Example 86, (−)-4-{4-[3-(difluoromethyl)-5-(trifluoromethyl)phenoxy]-3-methoxyphenyl}-2H, 4H,5H,6H,7H-pyrazolo[3,4-b]pyridin-6-one]
4 | ≤ 10 nM | ≤ 316 nM | COc1cc(C2CC(=O)Nc3n[nH]cc32)ccc1Oc1ccc(C(C)(C)C)cc1C(C)(C)C (centres unmarked) [Example 37, 4-[4-(2,4-di-tert-butylphenoxy)-3-methoxyphenyl]-2H,4H,5H,6H,7H-pyrazolo[3,4-b]pyridin-6-one]
5 | ≤ 10 nM | ≤ 316 nM | COc1cc(Oc2ccc(C3CC(=O)Nc4n[nH]cc43)cc2OC)cc(C(F)(F)F)c1 (centres unmarked) [Example 38, 4-{3-methoxy-4-[3-methoxy-5-(trifluoromethyl)phenoxy]phenyl}-2H,4H,5H,6H,7H-pyrazolo[3,4-b]pyridin-6-one]
6 | ≤ 10 nM | ≤ 316 nM | COc1cc(C2CC(=O)Nc3n[nH]cc32)ccc1Oc1ccc(C#N)cc1C(C)(C)C (centres unmarked) [Example 39, 3-tert-butyl-4-(2-methoxy-4-{6-oxo-2H,4H,5H,6H,7H-pyrazolo[3,4-b]pyridin-4-yl}phenoxy)benzonitrile]
7 | 10 to 100 nM | ≤ 316 nM | COc1cc(C2CC(=O)Nc3n[nH]cc32)ccc1Oc1ccccc1S(F)(F)(F)(F)F (centres unmarked) [Example 40, 4-{3-methoxy-4-[2-(pentafluoro-λ^6-sulfanyl)phenoxy]phenyl}-2H,4H,5H,6H,7H-pyrazolo[3,4-b]pyridin-6-one]

The next lines start with the compound.

Row | SMILES | IC50 [1] | IC50 (full length ERRα)
8 | COc1cc(C2CC(=O)Nc3n[nH]cc32)ccc1Oc1ccccc1C(C)(C)C (centres unmarked) [Example 10, 4-[4-(2-tert-butylphenoxy)-3-methoxyphenyl]-2H,4H,5H,6H,7H-pyrazolo[3,4-b]pyridin-6-one] | 10 to 100 nM | ≤ 316 nM
9 | COc1cc(C2CC(=O)Nc3n[nH]cc32)ccc1Oc1ccc(O)c(C(C)(C)C)c1 (centres unmarked) [Example 29, 4-[4-(3-tert-butyl-4-hydroxyphenoxy)-3-methoxyphenyl]-2H,4H,5H,6H,7H-pyrazolo[3,4-b]pyridin-6-one] | ≤ 10 nM | ≤ 316 nM
10 | CCc1ccc(Oc2ccc(C3CC(=O)Nc4n[nH]cc43)cc2OC)c(C(C)(C)C)c1 (centres unmarked) [Example 32, 4-[4-(2-tert-butyl-4-ethylphenoxy)-3-methoxyphenyl]-2H,4H,5H,6H,7H-pyrazolo[3,4-b]pyridin-6-one] | ≤ 10 nM | ≤ 316 nM
11 | COc1cc(C2CC(=O)Nc3n[nH]cc32)ccc1Oc1ccc(Br)cc1C(C)(C)C (centres unmarked) [Example 33, 4-[4-(4-bromo-2-tert-butylphenoxy)-3-methoxyphenyl]-2H,4H,5H,6H,7H-pyrazolo[3,4-b]pyridin-6-one] | ≤ 10 nM | ≤ 316 nM
12 | COc1cc(C2CC(=O)Nc3n[nH]cc32)ccc1Oc1ccc(C)cc1C(C)(C)C (centres unmarked) [Example 34, 4-[4-(2-tert-butyl-4-methylphenoxy)-3-methoxyphenyl]-2H,4H,5H,6H,7H-pyrazolo[3,4-b]pyridin-6-one] | ≤ 10 nM | ≤ 316 nM
13 | COC(=O)c1ccc(Oc2ccc(C3CC(=O)Nc4n[nH]cc43)cc2OC)c(C(C)(C)C)c1 (centres unmarked) [Example 35, methyl 3-tert-butyl-4-(2-methoxy-4-{6-oxo-2H,4H,5H,6H,7H-pyrazolo[3,4-b]pyridin-4-yl}phenoxy)benzoate] | ≤ 10 nM | ≤ 316 nM
